# Reference: patent US8367708B2, “Phenyl-isoxazol-3-ol derivative” (MSD K.K., priority 2006, dated 2013)
# pEC50: −log10 of the molar value.
# Target: T1, human GPR120 (Homo sapiens, UniProt Q5NUL3)
# T1 construct: expressed in transfected cells
# T1 sequence (Q5NUL3 1-361): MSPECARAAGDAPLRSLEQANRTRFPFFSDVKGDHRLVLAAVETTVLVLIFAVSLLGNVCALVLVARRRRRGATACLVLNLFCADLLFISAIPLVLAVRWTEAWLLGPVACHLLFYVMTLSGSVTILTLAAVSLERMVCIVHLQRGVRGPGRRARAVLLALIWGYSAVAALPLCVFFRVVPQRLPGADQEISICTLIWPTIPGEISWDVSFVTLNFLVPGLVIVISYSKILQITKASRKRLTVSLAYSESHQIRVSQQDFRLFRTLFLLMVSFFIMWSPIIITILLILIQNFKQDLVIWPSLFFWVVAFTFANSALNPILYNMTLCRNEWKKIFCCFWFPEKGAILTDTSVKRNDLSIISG
# Experiment: Measurement of intracellular calcium concentration (FLIPR), GPR120 agonist action
# Assay type: cell-based
# Conditions: human GPR120 expression CHO cells, Fluo-4 AM, read-out: IC50 (GPR120 agonist action)
row,SMILES,pEC50
1,"COCc1cccc(CCOc2ccc(-c3cc(O)no3)cc2)c1 [Example 43, 5-(4-(2-(3-(methoxymethyl)phenyl)ethoxy)phenyl)isoxazol-3-ol]",6.55
2,"Oc1cc(-c2ccc(OCc3cccc(Oc4ccccc4)n3)cc2)on1 [Example 3, 5-(4-((6-phenoxypyridin-2-yl)methoxy)phenyl)isoxazol-3-ol]",6.74
3,"Oc1cc(-c2cc(F)c(OCc3ccccc3Oc3ccccc3)c(F)c2)on1 [Example 26, 5-(3,5-difluoro-4-((2-phenoxybenzyl)oxy)phenyl)isoxazol-3-ol]",6.52
4,"Oc1cc(-c2ccc(OCc3ccccc3Oc3ccccc3)nc2)on1 [Example 9, 5-(6-((2-phenoxybenzyl)oxy)pyridin-3-yl)isoxazol-3-ol]",6.74
5,"Oc1cc(-c2ccc(COc3cccc(Oc4ccccc4)c3)cc2)on1 [Example 45, 5-(4-((3-phenoxyphenoxy)methyl)phenyl)isoxazol-3-ol]",6.77
6,"Cc1oc(-c2ccccc2)nc1CCOc1ccc(-c2cc(O)no2)cc1 [Example 33, 5-(4-(2-(5-methyl-2-phenyl-1,3-oxazol-4-yl)ethoxy)phenyl)isoxazol-3-ol]",6.21
7,Oc1cc(-c2ccc(OCCc3cccc(Oc4ccccc4)c3)cc2)on1 [Example 38],6.60

# Compounds with a higher pEC50, results first:
row,pEC50,SMILES
1,6.82,CC(C)Nc1cccc(CCOc2ccc(-c3cc(O)no3)cc2)c1 [Example 41]
2,7.15,"CC(C)Sc1ncccc1COc1ccc(-c2cc(O)no2)cc1 [Example 15, 5-(4-((2-(isopropylthio)pyridin-3-yl)methoxy)phenyl)isoxazol-3-ol]"
3,7.00,"CCOc1cccc(OCCc2ccc(-c3cc(O)no3)cc2)c1 [Example 36, 5-(4-(2-(3-ethoxyphenoxy)ethyl)phenyl)isoxazol-3-ol]"
